Here are results for 1 compound from ChEMBL document CHEMBL3639084, “Heterocyclic analogs of propargyl-linked inhibitors of dihydrofolate reductase” (2014).

The IC50 is the concentration at which inhibition is half-maximal. Read a high IC50 as weaker potency.

For the assay, the target named is T1, Dihydrofolate reductase (Homo sapiens, UniProt P00374).
T1 sequence (P00374 whole entry): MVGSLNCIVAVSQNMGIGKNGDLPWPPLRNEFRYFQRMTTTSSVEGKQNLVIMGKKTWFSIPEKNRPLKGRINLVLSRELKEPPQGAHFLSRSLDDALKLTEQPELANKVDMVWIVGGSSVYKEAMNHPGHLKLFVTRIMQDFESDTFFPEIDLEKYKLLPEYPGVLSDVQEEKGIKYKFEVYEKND
Briefly: Spectrophotometric Enzyme Assay: Compounds were evaluated in spectrophotometric enzyme assays using ChDHFR-TS and hDHFR. Inhibition constants (IC50) were measured (see Table 4). The lead compound, X, has an inhibition constant of 38 nM and modest selectivity (8-fold).

On to `COc1cc(-c2ccccc2C)ccc1C(C)C#Cc1c(C)nc(N)nc1N` (stereo unspecified), for which the IC50 was 2770 nM.
